Assay results: US7868026B2, “Therapeutic compounds” (Pfizer Inc., priority 2005, dated 2011)
Read-outs that look alike come from different tables or passages of the source.

Legend:
Format in all cases: biochemical
CYP3A4 [1] = target: T1, CYP3A4 (Homo sapiens, UniProt P08684); assay: Determination of compound Kiapp against recombinant CYP3A4 enzyme (BFC fluorescent substrate)
Method in brief: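 Recombinant CYP3A4 (5.5 or 8 nM, with or without b5 depending on source) pre-incubated with inhibitor ≥30 min at room temperature in 100 mM sodium phosphate pH 7.0, 5 mM TCEP, 2% DMF. Reaction started with 200 uM NADPH and 5 uM BFC; initial fluorescence rates over 5 min fitted to Morrison tight-binding (non-partial) or Szedlacsek (partial) equations for Kiapp.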

CYP3A4 [2] = target: T1, CYP3A4; assay: Determination of IC50 against CYP3A4 by measurement of inhibition of testosterone metabolism (human liver microsomes, 6-β-OH-testosterone by LC-MS/MS); design: 0.1 mg/mL human liver microsomes; conditions: read-out: IC50 (Testo.)
Method in brief: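 Human liver microsomes (0.1 mg/mL) incubated with 25 μM testosterone and 1 mM NADPH in 100 mM potassium phosphate, pH 7.4, for eight minutes. 6-β-OH-testosterone measured by LC-MS/MS in MRM mode against an internal standard and quantified from a metabolite standard curve.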

CYP3A4 [3] = target: T1, CYP3A4; assay: Determination of IC50 against CYP3A4 by measurement of inhibition of midazolam metabolism (human liver microsomes, 1-hydroxymidazolam by LC-MS/MS); design: 0.1 mg/mL human liver microsomes; conditions: 2 μM midazolam, 0.1 mg/mL human liver microsomes
Method in brief: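 Human liver microsomes (0.1 mg/mL) incubated 8 min with 2 μM midazolam and 1 mM NADPH in 100 mM potassium phosphate, pH 7.4. 1-Hydroxymidazolam quantified by LC-MS/MS (MRM) as peak area ratio to internal standard against a metabolite standard curve.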

[4] = Baculo. enzyme preparation, read-out: Kiapp (BFC, Baculo.)
[5] = Super. enzyme preparation, read-out: Kiapp (BFC, Super.)

T1 sequence (P08684 whole entry): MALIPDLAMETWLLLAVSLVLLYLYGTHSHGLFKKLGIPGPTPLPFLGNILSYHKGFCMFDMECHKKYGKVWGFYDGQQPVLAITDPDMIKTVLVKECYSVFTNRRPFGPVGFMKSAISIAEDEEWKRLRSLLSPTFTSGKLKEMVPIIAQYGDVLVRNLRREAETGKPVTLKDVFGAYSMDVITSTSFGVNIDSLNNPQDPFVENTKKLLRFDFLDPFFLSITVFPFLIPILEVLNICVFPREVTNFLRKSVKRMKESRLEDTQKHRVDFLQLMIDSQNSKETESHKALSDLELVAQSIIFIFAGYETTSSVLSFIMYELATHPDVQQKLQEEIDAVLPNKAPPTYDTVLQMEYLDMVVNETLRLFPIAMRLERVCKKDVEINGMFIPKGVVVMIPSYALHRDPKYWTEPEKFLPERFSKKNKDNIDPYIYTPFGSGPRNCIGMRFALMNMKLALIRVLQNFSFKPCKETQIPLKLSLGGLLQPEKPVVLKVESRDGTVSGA

Structure (SMILES)	Ki (CYP3A4 [1]; [4]) [µM]	Ki (CYP3A4 [1]; [5]) [µM]	IC50 (CYP3A4 [2]) [µM]	IC50 (CYP3A4 [3]) [µM]
O=C(NCc1ccc2ncccc2c1)c1ccccc1S(=O)(=O)Nc1cccnc1 [Example 89, 2-[(pyridin-3-ylamino)sulfonyl]-N-(quinolin-6-ylmethyl)benzamide]	> 1	0.218	0.06	0.054
COc1ccccc1CNC(=O)c1ccccc1S(=O)(=O)Nc1cccnc1 [Example 90, N-(2-methoxybenzyl)-2-[(pyridin-3-ylamino)sulfonyl]benzamide]	0.313	0.0252	0.036	0.01
COc1cncc(NS(=O)(=O)c2ccccc2C(=O)NC(C)(C)c2ccc(F)c(F)c2)c1 [Example 148, N-[1-(3,4-difluorophenyl)-1-methylethyl]-2-{[(5-methoxypyridin-3-yl)amino]sulfonyl}benzamide]	0.0181	0.0049	0.015	< 0.003
COc1cncc(NS(=O)(=O)c2ccccc2C(=O)NC2CCC(C)CC2)c1 (centres unmarked) [Example 149, 2-{[(5-methoxypyridin-3-yl)amino]sulfonyl}-N-(4-methylcyclohexyl)benzamide]	0.208	0.0123	0.021	0.012
COc1cncc(NS(=O)(=O)c2ccccc2C(=O)NCc2ccc(Cl)cc2F)c1 [Example 150, N-(4-chloro-2-fluorobenzyl)-2-{[(5-methoxypyridin-3-yl)amino]sulfonyl}benzamide]	0.0522	0.0092	0.015	0.038
COc1cncc(NS(=O)(=O)c2ccccc2C(=O)NCc2cc(Cl)ccc2F)c1 [Example 151, N-(5-chloro-2-fluorobenzyl)-2-{[(5-methoxypyridin-3-yl)amino]sulfonyl}benzamide]	0.12	0.0122	0.016	0.028
COc1cncc(NS(=O)(=O)c2ccccc2C(=O)NCCc2cccc(Cl)c2)c1 [Example 152, N-[2-(3-chlorophenyl)ethyl]-2-{[(5-methoxypyridin-3-yl)amino]sulfonyl}benzamide]	0.0461	0.0064	0.023	0.013
COc1cncc(NS(=O)(=O)c2ccccc2C(=O)NCc2ccc3c(c2)CCO3)c1 [Example 153, N-(2,3-dihydro-1-benzofuran-5-ylmethyl)-2-{[(5-methoxypyridin-3-yl)amino]sulfonyl}benzamide]	0.262	0.0271	0.019	0.005
Cc1cncc(NS(=O)(=O)c2ccccc2C(=O)N(C)CCc2ccccc2C)c1 [Example 154, N-methyl-N-[2-(2-methylphenyl)ethyl]-2-{[(5-methylpyridin-3-yl)amino]sulfonyl}benzamide]	0.0115	0.0032	0.023	0.006
Cc1cncc(NS(=O)(=O)c2ccccc2C(=O)NCc2cc(Cl)cc(Cl)c2)c1 [Example 155, N-(3,5-dichlorobenzyl)-2-{[(5-methylpyridin-3-yl)amino]sulfonyl}benzamide]	0.0028	0.0016	0.015	0.008
Cc1cncc(NS(=O)(=O)c2ccccc2C(=O)NCc2ccc(F)c(C)c2)c1 [Example 156, N-(4-fluoro-3-methylbenzyl)-2-{[(5-methylpyridin-3-yl)amino]sulfonyl}benzamide]	0.084	0.005	0.011	0.013
Cc1cncc(NS(=O)(=O)c2ccccc2C(=O)NCc2ccc(C)c(F)c2)c1 [Example 157, N-(3-fluoro-4-methylbenzyl)-2-{[(5-methylpyridin-3-yl)amino]sulfonyl}benzamide]	0.0494	0.0013	0.008	0.008
Cc1cncc(NS(=O)(=O)c2ccccc2C(=O)NCc2ccc(F)c(Cl)c2)c1 [Example 158, N-(3-chloro-4-fluorobenzyl)-2-{[(5-methylpyridin-3-yl)amino]sulfonyl}benzamide]	0.0197	0.0009	0.01	0.006
Cc1cncc(NS(=O)(=O)c2ccccc2C(=O)NCc2ccc(S(C)(=O)=O)cc2)c1 [Example 159, 2-{[(5-methylpyridin-3-yl)amino]sulfonyl}-N-[4-(methylsulfonyl)benzyl]benzamide]	0.751	0.144	0.129	0.064
CCOc1ccncc1NS(=O)(=O)c1ccccc1C(=O)N(C)CCOC [Example 160, 2-{[(4-ethoxypyridin-3-yl)amino]sulfonyl}-N-(2-methoxyethyl)-N-methylbenzamide]	> 1	0.163	0.202	0.129
COCCN(C)C(=O)c1ccccc1S(=O)(=O)Nc1cnccc1OC [Example 161, N-(2-methoxyethyl)-2-{[(4-methoxypyridin-3-yl)amino]sulfonyl}-N-methylbenzamide]	> 1	0.418	0.371	0.308
COCCN(C)C(=O)c1ccccc1S(=O)(=O)Nc1cncc(C)c1 [Example 162, N-(2-methoxyethyl)-N-methyl-2-{[(5-methylpyridin-3-yl)amino]sulfonyl}benzamide]	0.469	0.0999	0.17	0.093
CN(Cc1ccc(F)c(F)c1)C(=O)c1ccccc1S(=O)(=O)Nc1cncc(F)c1 [Example 163, N-(3,4-difluorobenzyl)-2-{[(5-fluoropyridin-3-yl)amino]sulfonyl}-N-methylbenzamide]	0.263	0.058	0.082	0.049
Cc1ccncc1NS(=O)(=O)c1ccccc1C(=O)N(C)CCC(C)C [Example 164, N-methyl-N-(3-methylbutyl)-2-{[(4-methylpyridin-3-yl)amino]sulfonyl}benzamide]	0.281	0.0343	0.047	0.024
Cc1ccncc1NS(=O)(=O)c1ccccc1C(=O)N(C)Cc1ccc(C(F)(F)F)cc1 [Example 165, N-methyl-2-{[(4-methylpyridin-3-yl)amino]sulfonyl}-N-[4-(trifluoromethyl)benzyl]benzamide]	0.163	0.0296	0.054	0.043
Cc1ccc(CNC(=O)c2ccccc2S(=O)(=O)Nc2cnccc2C)cc1F [Example 166, N-(3-fluoro-4-methylbenzyl)-2-{[(4-methylpyridin-3-yl)amino]sulfonyl}benzamide]	0.196	0.0351	0.026	0.023
Cc1cc(CNC(=O)c2ccccc2S(=O)(=O)Nc2cnccc2C)ccc1F [Example 167, N-(4-fluoro-3-methylbenzyl)-2-{[(4-methylpyridin-3-yl)amino]sulfonyl}benzamide]	0.159	0.0174	0.016	0.009
Cc1ccncc1NS(=O)(=O)c1ccccc1C(=O)NCc1ccc(F)c(Cl)c1 [Example 168, N-(3-chloro-4-fluorobenzyl)-2-{[(4-methylpyridin-3-yl)amino]sulfonyl}benzamide]	0.066	0.0117	0.018	0.009
